From PubChem BioAssay (NCI)
“And” between values parts separate entries of the source, which are not always exact repeats. Equal entries are not always repeated.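 How tested: cells in 96-well plates exposed to compound for 48 hours at five concentrations. GI50 marks 50% less growth. TGI denotes the concentration required for complete inhibition of growth.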

Legend:
Assay in all cases: growth of human tumour cells (NCI), 48 h
ACHN renal = tested on: ACHN renal
K-562 leukemia = tested on: K-562 leukemia
SF-295 CNS = tested on: SF-295 CNS
SK-MEL-2 melanoma = tested on: SK-MEL-2 melanoma
CAKI-1 renal = tested on: CAKI-1 renal
UO-31 renal = tested on: UO-31 renal
SF-539 CNS = tested on: SF-539 CNS
MALME-3M melanoma = tested on: MALME-3M melanoma
NCI-H226 lung = tested on: NCI-H226 lung
HOP-92 NSCLC = tested on: HOP-92 NSCLC

SMILES	TGI (ACHN renal) [µM]	TGI (K-562 leukemia) [µM]	TGI (SF-295 CNS) [µM]	TGI (SK-MEL-2 melanoma) [µM]	TGI (CAKI-1 renal) [µM]	TGI (UO-31 renal) [µM]	TGI (SF-539 CNS) [µM]	TGI (MALME-3M melanoma) [µM]	GI50 (ACHN renal) [µM]	GI50 (K-562 leukemia)	GI50 (SF-295 CNS)	GI50 (SK-MEL-2 melanoma) [µM]	GI50 (NCI-H226 lung) [µM]	TGI (NCI-H226 lung) [µM]	GI50 (CAKI-1 renal) [µM]	GI50 (UO-31 renal) [µM]	GI50 (HOP-92 NSCLC) [µM]	TGI (HOP-92 NSCLC) [µM]	GI50 (SF-539 CNS) [µM]	GI50 (MALME-3M melanoma) [µM]
N#CC1=C(c2ccccc2)OC2(N)OC(c3ccccc3)=C(C#N)C12C#N (stereo not drawn)	> 100	> 100	> 100	> 100	> 100	> 100	> 100	> 100	–	–	–	–	–	–	–	–	–	–	–	–
COC(=O)[C@H](CCCCNC(=O)OCc1ccccc1)NC(=O)[C@@H](NC(=O)Nc1cc(C(F)(F)F)cc(C(F)(F)F)c1)C(C)C	> 10	> 10	> 10	> 10	> 10	> 10	> 10	> 10	> 10	> 10 µM	> 10 µM	> 10	> 10	> 10	> 10	> 10	> 10	> 10	> 10	> 10
COc1cccc(-c2nn(-c3ccccc3)cc2-c2ccnc(NCCCNS(=O)(=O)c3ccc(C(F)(F)F)cc3)c2)c1	> 100	> 100	> 100	12.4	> 100	> 100	> 100	> 100	4.8	3.06 µM	3.17 µM	2.84	8.75	> 100	5.76	2.9	3.68	> 100	5.66	3.4
O=C(c1ccc(Nc2nccc(NCCCCNc3ccnc4cc(Cl)ccc34)n2)cc1)N1CCCCC1	11.3	–	3.33	4.03	8.84	3.79	–	–	3.32	–	1.54 µM	2.08	3.59	13.7	2.77	1.69	1.52	3.95	–	–
NC(Cc1c[nH]c2cccc(F)c12)C(=O)O (stereo not drawn)	> 4500	> 4500	1190	> 4500	> 4500	> 4500	3040	> 4500	679	68.5 µM and 269 µM	39.5 µM and 176 µM	–	3210	> 4500	1080	842	4110	> 4500	381	2600
O=C(OCc1ccccc1)n1cccc1	> 100	> 100	> 100	> 100	> 100	> 100	> 100	> 100	–	–	–	–	–	> 100	–	–	–	> 100	–	–
Cc1ccc(C2C3Cc4ccccc4C3=NN2c2ccc(S(=O)(=O)NC(=O)Nc3ccccc3)cc2)cc1 (stereo not drawn)	27.5	26.8	33.6	31.5	37.9	28.4	30.6	–	14.1	11.5 µM	12.8 µM	14.2	15.9	49.2	14.6	11.6	14.3	28.2	14.3	–
C=CCN1C(=O)[C@]2(SC1=S)[C@H](c1cccc(Cl)c1)CN(C)[C@]21C(=O)NC2C=CC(Cl)=C[C@H]21 (stereo partly drawn)	13.4	–	21.4	24.2	–	9.06	25.6	12.7	2.99	–	7.29 µM	8.13	1.59	3.98	–	1.85	3.17	14.9	10.3	2.88
CC(=N/NC(N)=S)/C(C)=N/NC(N)=S	> 100	> 100	–	> 100	–	> 100	> 100	> 100	–	–	–	–	–	> 100	–	–	–	–	–	–
CC(=O)/C=C/c1ccc(N(CCO)Cc2ccc(C(C)(C)C)cc2)cc1	170	–	176	233	–	122	212	208	50.1	–	40.3 µM	96.7	73.3	248	–	22.5	27.6	156	84.3	65.3
CCSCCCC(=O)O	> 100	> 100	> 100	> 100	> 100	> 100	–	> 100	–	–	–	–	–	> 100	–	–	–	–	–	–
Oc1cc(O)c2c(c1)OC(c1ccc(O)c(O)c1)C(O)C2c1c(O)cc(O)c2c1OC(c1ccc(O)c(O)c1)C(O)C2 (stereo not drawn)	> 100	–	> 100	> 100	67.5	> 100	> 100	> 100	–	–	–	–	–	> 100	–	–	–	> 100	–	–
C=C1C(O)C2CC(C)(C)C(=O)C2=C(CC(C)C)C12CC2 (stereo not drawn)	> 100	> 100	> 100	> 100	> 100	> 100	> 100	> 100	> 100	> 100 µM	> 100 µM	> 100	–	–	> 100	> 100	> 100	> 100	> 100	> 100
N#CC(C#N)=C1CCC2C(=C(C#N)C#N)CCC12 (stereo not drawn)	–	> 100	> 100	–	> 100	> 100	> 100	> 100	–	–	–	–	–	> 100	–	–	–	> 100	–	–
Cc1cn2c(/C=C3\C(=O)N(C)c4ccc(Cl)cc43)c(C)nc2s1	32.6	–	> 100	> 100	> 100	67.1	6.93	> 100	4.62	–	3.63 µM	6.81	18.5	> 100	3.11	7.18	6.3	45.4	2.46	69.6
CC(C)(C)OC1=C(OC(C)(C)C)C(O)(c2ccc(Cl)cc2)C1=O (stereo not drawn)	> 100	> 100	> 100	–	–	> 100	> 100	> 100	–	–	–	–	–	–	–	–	–	–	–	–

SMILES	TGI (ACHN renal) [µM]	TGI (K-562 leukemia) [µM]	TGI (SF-295 CNS) [µM]	TGI (SK-MEL-2 melanoma) [µM]	TGI (CAKI-1 renal) [µM]	TGI (UO-31 renal) [µM]	TGI (SF-539 CNS) [µM]	TGI (MALME-3M melanoma) [µM]	GI50 (ACHN renal) [µM]	GI50 (K-562 leukemia)	GI50 (SF-295 CNS)	GI50 (SK-MEL-2 melanoma) [µM]	GI50 (NCI-H226 lung) [µM]	TGI (NCI-H226 lung) [µM]	GI50 (CAKI-1 renal) [µM]	GI50 (UO-31 renal) [µM]	GI50 (HOP-92 NSCLC) [µM]	TGI (HOP-92 NSCLC) [µM]	GI50 (SF-539 CNS) [µM]	GI50 (MALME-3M melanoma) [µM]
CCN(CC)CCCC(C)Nc1ccnc(/C=C/c2ccc(Cl)cc2)c1 (stereo not drawn)	8.68	–	6.3	4.25	4.11	3.17	3.8	3.08	–	–	–	–	2.02	4.97	–	–	–	3.12	–	–
CN(C)CCNC(=O)c1cccc2c1nc(-c1ccncc1)c1ccccc12	10.6	> 100	15.9	19.1	24.5	6.08	10.7	–	–	–	–	–	–	10.5	–	–	–	9.77	–	–
CC(=O)c1ccc(Oc2c3ccccc3nc3occc23)cc1	> 100	> 100	12.5	> 100	–	> 100	8.41	> 100	3.57	2.93 µM	2.02 µM	> 100	15.1	90.3	–	60.5	31.6	> 100	2.53	4.14
CC(=O)[CH-]C(=O)c1ccccc1.CC(=O)[CH-]C(=O)c1ccccc1.CC(=O)[CH-]C(=O)c1ccccc1.[Br-].[Zr+4]	> 100	> 100	> 100	> 100	> 100	–	–	55.3	54.3	> 100 µM	33.8 µM	38.5	–	–	37.2	–	18.6	61.4	–	20.2
Cc1ccc(/C(=C/C=C(C#N)C#N)Sc2nc3ccccc3s2)cc1	–	> 100	21	27.1	8.35	22.5	20.8	6.57	–	6.25 µM	5.77 µM	4.95	3.5	8.01	2.72	3.41	–	–	4.77	2.52
CCCCC[C@H]1C/C=C2/C(=O)C(Cl)=C[C@@H]2C/C=C\CCCC(=O)O1	0.704	3.6	1.53	1.13	–	0.717	1.61	1.53	0.361	0.116 µM	0.563 µM	0.439	0.544	1.5	–	0.379	0.587	1.38	0.607	0.573
O=C(O)c1cc(Cl)cc(Cc2cc(Cl)cc(C(=O)O)c2O)c1O	> 100	> 100	> 100	> 100	> 100	> 100	> 100	> 100	–	–	–	–	–	–	–	–	–	> 100	–	–
COc1ccc(NC(=O)c2cccc(C3CCc4c(cc(OC)c(OC)c4OC)O3)c2)cc1 (stereo not drawn)	> 100	> 100	–	8.79	> 100	> 100	7.01	> 100	4.28	0.654 µM	–	2.95	–	–	3.49	2.36	0.29	3.49	2.52	2.69
N/C(=N/S(=O)(=O)c1cc(C(=O)Nc2ccc(F)cc2)c(Cl)cc1SCc1ccccc1)Nc1ccccc1O	> 100	3.64	3.66	4.02	> 100	37.4	4.23	–	18.9	1.33 µM	1.95 µM	2.13	16.3	30.9	23.8	17.3	1.9	4.02	1.94	–
CCOP(=O)(OCC)C(NC(c1ccccc1)c1ccccc1)c1ccc(C(C)C)cc1 (stereo not drawn)	7.27	14.8	11.7	72.7	13.1	28.9	30	–	2.64	3.48 µM	2.92 µM	19.2	–	–	3.23	7.45	1.97	11	13.1	–
COc1cc(NCCC2CCCCN2)c2ncccc2c1OC (stereo not drawn)	89.9	–	31	9.07	30.2	36.7	28.5	30	21.2	–	10.4 µM	3.13	23.5	46.8	9.56	14.9	–	–	14.1	14.2
CCc1cccc(NC(=O)c2cc(/C=C/c3ccccc3)[nH]c(=S)n2)c1	> 100	> 100	> 100	> 100	–	> 100	> 100	> 100	–	–	–	–	–	> 100	–	–	–	> 100	–	–
CC1(C)CN(CCNc2nccc(-c3c(-c4cccc(O)c4)nc4sccn34)n2)S(=O)(=O)N1	> 33.2	> 33.2	> 33.2	4.83	> 27.2	> 33.2	> 33.2	–	7.07	6.46 µM	17.7 µM	1.36	10.4	32.4	6.12	13.3	29.4	> 33.2	30	–
CCOC(=O)c1cc2c(n1Cc1cc(OC)cc(OC)c1)-c1oncc1CC2	> 100	> 100	–	> 100	> 100	> 100	4.58	–	2.22	0.0518 µM	0.0518 µM	> 100	2.75	> 100	0.102	6.37	45.2	> 100	0.243	–
O=C(O)CCSC(=O)Nc1ccccc1	> 100	> 100	> 100	> 100	> 100	> 100	> 100	–	–	–	–	–	–	> 100	–	–	–	–	–	–
CCOC(=O)c1ccc(NC(=O)c2cccc(NC3=C(Cl)C(=O)N(Cc4ccccc4)C3=O)c2)cc1	> 100	> 100	> 100	> 100	> 100	–	> 100	–	> 100	33.3 µM	> 100 µM	> 100	> 100	> 100	> 100	–	78.8	> 100	> 100	–
